In article PMC5028780, “Receptor and transporter binding and activity profiles of albiflorin extracted from Radix paeoniae Alba” (Scientific Reports, 2016):

What was measured:
M5 = M5 (Homo sapiens, UniProt P08912); assay: CNS receptor binding, muscarinic M5; settings: CHO cell line, [3H]-NMS(1)
Description: (§1) Albiflorin (10 μM) was tested for numerous other potential binding targets by using standard receptor binding procedures. The tested targets included the following receptors: D1, D2, D3, D4, D5, 5-HT1A, 5-HT1B, 5-HT1D, 5-HT2a, 5-HT2C, 5-HT3, 5-HT5A, 5-HT6, 5-HT7, α1A, α1B, α2A, β1, M1, M2, M3, M4, M5, μ, κ, δ, A1, A2A, H1, H2, H3, H4.

A1 = A1 (Homo sapiens, UniProt P30542); assay: CNS receptor binding, adenosine A1; settings: CHO cell line, [3H]-DPCPX(1)
Description: as §1

μ = μ (Homo sapiens, UniProt P35372); assay: CNS receptor binding, opioid μ; settings: CHO cell line, [3H]-dipnorphine(1)
Description: as §1

rat DAT = molecular target: T1, rat DAT (Rattus norvegicus, UniProt P23977); settings: [3H]-win35,428, Striatum, read-out: Ki values, DAT binding
T1 construct: from tissue; host or cells: Sprague-Dawley rat brain membranes (probably striatum)
Description: Male Sprague–Dawley rats were killed by cervical dislocation, and their brains were rapidly removed and then dissected on ice. The cerebral cortex, hypothalamus and striatum were homogenised in 4 mL of assay buffer (50 mM Tris–HCl buffer, pH 7.4.) and centrifuged at 40,000× g for 10 min at 4 °C. The pellets were centrifuged twice at 20,000× g and then resuspended in 4 mL of assay buffer. […] Bio-Rad protein assay reagents (1:5 ratio) were used to analyse the protein concentration of the synaptosomal suspension.
All data for inhibition curves were analysed by nonlinear regression using Prism software (GraphPad Software Inc., San Diego, CA) to determine IC50 values. For the microdialysis experiments, two-way repeated-measures ANOVA followed by Tukey’s test was used to compare the percentage increase over baseline between groups, time and treatment as independent factors, and time as the repeated factor.

duration of immobility = tested on: duration of immobility; set-up: method as in PMID 26719283; settings: mice; short- and long-term administration; cited from earlier work
M4 = M4 (Homo sapiens, UniProt P08173); assay: CNS receptor binding, muscarinic M4; settings: CHO cell line, [3H]-NMS(1)
Description: as §1

[1] = tested on: DA levels in the hypothalamus; assay: In vivo microdialysis, extracellular DA; settings: oral, 3.5, 7.0 and 14.0 mg/kg, rats
Description: The effect of albiflorin on extracellular monoamine levels in […] was determined using methods previously described. Microdialysis probes (CMA Microdialysis) with an active membrane surface of 2 mm were perfused with artificial cerebrospinal fluid (125 mM NaCl, 3 mM KCl, 0.75 mM MgSO4 and 1.2 mM CaCl2, pH 7.4) in situ for at least 18 h before experimentation. The microdialysis probe was then implanted via the guide cannula into the hypothalamus and perfused with artificial cerebral spinal fluid at a flow rate of 1 μL/min. A 3-h stabilisation period was allowed after probe implantation, and dialysate sampling was conducted according to previously described methods. […] All subsequent values were expressed as a percentage of the mean preinjection value (i.e., percentage of baseline). […] For a minimum of 3 h after albiflorin administration, dialysis samples were collected every 20 min and analysed to determine the levels of NE, 5-HT and DA. […] A 20-μL sample from the hypothalamus was analysed for 5-HT, NE and DA content using methods described previously. […] External standard curves were used to quantify the amounts of NE, 5-HT and DA in each sample, which was calculated using the area under the curve.
(§2) All data for inhibition curves were analysed by nonlinear regression using Prism software (GraphPad Software Inc., San Diego, CA) to determine IC50 values. […]

β1 = β1 (Homo sapiens, UniProt P08588); assay: CNS receptor binding, NE receptor β1; settings: HEK293 cell line, [3H]-DHA(1)
Description: as §1

SERT = molecular target: T2, SERT (Rattus norvegicus, UniProt P31652); assay: Rat synaptosome uptake assay, [3H]-5-HT; assay type: biochemical; settings: Mid brain synaptosome
T2 construct: rat brain synaptosomes were prepared and treated with various concentrations of albiflorin; from tissue; host or cells: Sprague-Dawley rat brain synaptosomes (cerebral cortex in the text)
Description: Male Sprague–Dawley rats were killed by asphyxiation with carbon dioxide and cervical dislocation followed by decapitation. […] All dissected tissues were homogenised using a Teflon-glass tissue homogeniser in 4 mL of ice-cold sucrose (0.32 M). The homogenised tissue was centrifuged at 2,000× g for 10 min at 4 °C. […] Bio-Rad protein assay reagents (1:5 ratio) were used to analyse the protein concentration of the synaptosomal suspension. Uptake of 5-HT, NE and DA was determined as described previously. The compounds to be tested were dissolved in DMSO, further diluted with assay buffer, and tested over a 10-log unit concentration range in duplicate. Samples of 30–50 μg of synaptosomes (per sample in a total volume of 200 μL) were preincubated at 37 °C in a shaking water bath for 10 min. Vehicle or modifiers were then added for 10–20 min. Uptake was initiated by adding [^3H]-5-HT (20 nM), [^3H]-NE (20 nM), or [^3H]-DA (50 nM). After a 10-min incubation at 37 °C, uptake was terminated by filtration through (polyethyleneimine-coated) GF/B Whatman filters using a Brandel Cell Harvester (Brandel, Gaithersburg, MD).
as §2

D3 = molecular target: T3, D3 (Homo sapiens, UniProt P35462); assay: CNS receptor binding, dopamine D3; settings: CHO cell lines, [3H]-spiperone(1), read-out: IC50 values for albiflorin
T3 construct: expressed in transfected cells; host or cells: CHO cell lines
Description: as §1

5-HT1D = 5-HT1D (Homo sapiens, UniProt P28221); assay: CNS receptor binding, 5-HT1D; settings: HEK293 cell line, [3H]-LSD(10)
Description: as §1

5-HT7 = 5-HT7 (Homo sapiens, UniProt P34969); assay: CNS receptor binding, 5-HT7; settings: HEK293 cell line, [3H]-LSD(4)
Description: as §1

[2] = read-out: IC50 values for albiflorin

Chain of 5-HT1D (P28221 whole entry): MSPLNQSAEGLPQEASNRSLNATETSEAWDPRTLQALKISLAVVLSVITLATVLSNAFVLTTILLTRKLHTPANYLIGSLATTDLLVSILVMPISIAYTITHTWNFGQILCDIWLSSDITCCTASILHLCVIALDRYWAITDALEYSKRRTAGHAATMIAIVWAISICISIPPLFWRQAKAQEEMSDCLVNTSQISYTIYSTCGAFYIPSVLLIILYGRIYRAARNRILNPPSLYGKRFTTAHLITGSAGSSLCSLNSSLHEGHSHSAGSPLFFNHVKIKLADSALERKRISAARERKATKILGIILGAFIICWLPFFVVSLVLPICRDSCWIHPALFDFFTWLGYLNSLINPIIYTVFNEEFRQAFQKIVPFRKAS
Chain of M5 (P08912 whole entry): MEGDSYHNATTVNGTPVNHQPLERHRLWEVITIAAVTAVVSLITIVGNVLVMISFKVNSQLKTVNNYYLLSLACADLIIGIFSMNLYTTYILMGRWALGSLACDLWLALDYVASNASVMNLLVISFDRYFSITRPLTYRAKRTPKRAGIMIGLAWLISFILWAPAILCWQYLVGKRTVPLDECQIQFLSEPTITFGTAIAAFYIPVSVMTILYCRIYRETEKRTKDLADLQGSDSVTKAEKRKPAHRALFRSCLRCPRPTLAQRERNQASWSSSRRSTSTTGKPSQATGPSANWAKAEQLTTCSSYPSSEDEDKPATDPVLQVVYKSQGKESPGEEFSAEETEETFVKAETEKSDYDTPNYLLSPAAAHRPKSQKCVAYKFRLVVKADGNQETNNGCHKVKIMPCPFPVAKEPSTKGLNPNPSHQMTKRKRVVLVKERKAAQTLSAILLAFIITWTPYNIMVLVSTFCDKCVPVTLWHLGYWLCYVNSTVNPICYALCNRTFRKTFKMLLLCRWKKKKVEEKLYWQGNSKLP
Chain of β1 (P08588 whole entry): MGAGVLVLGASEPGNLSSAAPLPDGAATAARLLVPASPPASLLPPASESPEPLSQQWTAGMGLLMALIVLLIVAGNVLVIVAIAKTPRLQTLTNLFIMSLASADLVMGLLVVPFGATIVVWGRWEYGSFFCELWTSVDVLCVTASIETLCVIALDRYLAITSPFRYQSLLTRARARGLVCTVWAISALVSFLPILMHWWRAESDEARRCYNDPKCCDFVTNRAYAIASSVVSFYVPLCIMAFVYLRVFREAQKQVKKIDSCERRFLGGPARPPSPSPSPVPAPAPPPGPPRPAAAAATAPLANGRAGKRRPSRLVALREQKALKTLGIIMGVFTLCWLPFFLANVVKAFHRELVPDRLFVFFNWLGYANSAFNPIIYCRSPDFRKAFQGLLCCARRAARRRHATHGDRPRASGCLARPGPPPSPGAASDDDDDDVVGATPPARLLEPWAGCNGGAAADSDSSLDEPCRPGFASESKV
Chain of μ (P35372 whole entry): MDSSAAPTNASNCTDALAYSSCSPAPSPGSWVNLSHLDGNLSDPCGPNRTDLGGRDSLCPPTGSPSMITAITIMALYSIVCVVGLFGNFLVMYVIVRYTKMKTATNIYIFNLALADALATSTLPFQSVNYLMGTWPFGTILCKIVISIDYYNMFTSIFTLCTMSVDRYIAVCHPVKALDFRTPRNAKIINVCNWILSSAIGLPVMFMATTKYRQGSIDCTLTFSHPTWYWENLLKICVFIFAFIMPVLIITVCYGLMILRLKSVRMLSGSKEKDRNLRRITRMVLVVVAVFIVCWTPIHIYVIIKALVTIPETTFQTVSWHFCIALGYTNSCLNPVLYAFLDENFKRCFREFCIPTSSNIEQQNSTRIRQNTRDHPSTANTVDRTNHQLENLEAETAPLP
Chain of M4 (P08173 whole entry): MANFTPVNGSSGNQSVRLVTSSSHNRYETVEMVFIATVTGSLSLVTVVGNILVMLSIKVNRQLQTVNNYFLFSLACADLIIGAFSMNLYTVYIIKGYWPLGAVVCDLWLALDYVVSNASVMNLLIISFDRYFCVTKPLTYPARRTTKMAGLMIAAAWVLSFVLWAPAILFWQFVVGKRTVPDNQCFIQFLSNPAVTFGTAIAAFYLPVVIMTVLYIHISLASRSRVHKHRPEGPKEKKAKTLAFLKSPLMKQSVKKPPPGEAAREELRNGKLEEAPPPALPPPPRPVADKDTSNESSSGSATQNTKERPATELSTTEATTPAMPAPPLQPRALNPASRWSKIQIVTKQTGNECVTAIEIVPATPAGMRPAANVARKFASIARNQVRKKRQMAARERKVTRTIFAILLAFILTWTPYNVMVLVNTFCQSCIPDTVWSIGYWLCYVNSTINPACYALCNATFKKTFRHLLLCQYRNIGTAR
Chain of A1 (P30542 whole entry): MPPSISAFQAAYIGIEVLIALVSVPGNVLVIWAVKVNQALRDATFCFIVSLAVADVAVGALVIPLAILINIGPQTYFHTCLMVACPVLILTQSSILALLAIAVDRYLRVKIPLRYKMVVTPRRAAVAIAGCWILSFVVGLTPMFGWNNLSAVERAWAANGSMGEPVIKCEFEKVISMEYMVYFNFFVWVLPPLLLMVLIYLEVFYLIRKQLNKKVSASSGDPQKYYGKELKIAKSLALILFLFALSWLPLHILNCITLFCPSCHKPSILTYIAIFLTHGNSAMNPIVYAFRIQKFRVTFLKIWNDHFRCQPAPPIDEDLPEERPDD
Chain of 5-HT7 (P34969 whole entry): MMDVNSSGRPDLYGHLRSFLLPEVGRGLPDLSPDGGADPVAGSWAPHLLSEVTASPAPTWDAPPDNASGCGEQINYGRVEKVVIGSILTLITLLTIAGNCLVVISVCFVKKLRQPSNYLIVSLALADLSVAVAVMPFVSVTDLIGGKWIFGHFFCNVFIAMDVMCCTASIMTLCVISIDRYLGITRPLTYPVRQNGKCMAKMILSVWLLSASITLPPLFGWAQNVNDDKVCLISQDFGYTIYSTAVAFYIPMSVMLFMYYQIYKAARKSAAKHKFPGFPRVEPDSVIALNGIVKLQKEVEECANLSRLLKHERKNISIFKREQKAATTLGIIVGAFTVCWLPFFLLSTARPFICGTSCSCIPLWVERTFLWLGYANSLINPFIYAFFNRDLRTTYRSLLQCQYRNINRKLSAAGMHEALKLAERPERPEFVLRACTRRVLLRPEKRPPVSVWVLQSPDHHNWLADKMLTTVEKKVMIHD
T3 sequence (P35462 whole entry): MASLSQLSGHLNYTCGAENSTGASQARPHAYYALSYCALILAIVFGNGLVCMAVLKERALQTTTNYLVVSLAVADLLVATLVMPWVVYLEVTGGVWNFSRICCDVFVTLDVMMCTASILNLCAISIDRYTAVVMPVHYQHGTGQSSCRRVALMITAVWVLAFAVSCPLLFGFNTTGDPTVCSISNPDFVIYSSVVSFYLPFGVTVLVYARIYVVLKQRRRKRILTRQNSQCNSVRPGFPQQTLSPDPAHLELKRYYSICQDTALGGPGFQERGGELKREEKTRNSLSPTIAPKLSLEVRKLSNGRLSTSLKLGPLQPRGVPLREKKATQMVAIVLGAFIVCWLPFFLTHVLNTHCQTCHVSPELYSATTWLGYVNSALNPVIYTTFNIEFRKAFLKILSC
T2 sequence (P31652 whole entry): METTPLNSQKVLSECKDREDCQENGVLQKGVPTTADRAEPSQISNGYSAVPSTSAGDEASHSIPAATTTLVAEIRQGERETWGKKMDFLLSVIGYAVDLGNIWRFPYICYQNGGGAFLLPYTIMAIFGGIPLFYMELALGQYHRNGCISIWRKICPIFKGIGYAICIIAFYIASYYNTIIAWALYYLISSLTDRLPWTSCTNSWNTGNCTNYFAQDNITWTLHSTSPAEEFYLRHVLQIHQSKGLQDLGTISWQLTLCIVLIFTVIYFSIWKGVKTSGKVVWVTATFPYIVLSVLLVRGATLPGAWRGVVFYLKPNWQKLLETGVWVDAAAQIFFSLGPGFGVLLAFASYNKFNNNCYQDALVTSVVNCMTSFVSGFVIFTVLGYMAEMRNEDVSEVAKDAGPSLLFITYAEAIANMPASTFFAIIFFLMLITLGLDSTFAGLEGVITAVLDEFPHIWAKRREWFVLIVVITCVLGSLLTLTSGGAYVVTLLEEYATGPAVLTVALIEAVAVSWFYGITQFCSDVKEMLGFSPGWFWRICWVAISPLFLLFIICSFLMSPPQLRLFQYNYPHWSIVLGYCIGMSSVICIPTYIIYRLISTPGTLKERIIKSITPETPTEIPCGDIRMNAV
T1 sequence (P23977 whole entry): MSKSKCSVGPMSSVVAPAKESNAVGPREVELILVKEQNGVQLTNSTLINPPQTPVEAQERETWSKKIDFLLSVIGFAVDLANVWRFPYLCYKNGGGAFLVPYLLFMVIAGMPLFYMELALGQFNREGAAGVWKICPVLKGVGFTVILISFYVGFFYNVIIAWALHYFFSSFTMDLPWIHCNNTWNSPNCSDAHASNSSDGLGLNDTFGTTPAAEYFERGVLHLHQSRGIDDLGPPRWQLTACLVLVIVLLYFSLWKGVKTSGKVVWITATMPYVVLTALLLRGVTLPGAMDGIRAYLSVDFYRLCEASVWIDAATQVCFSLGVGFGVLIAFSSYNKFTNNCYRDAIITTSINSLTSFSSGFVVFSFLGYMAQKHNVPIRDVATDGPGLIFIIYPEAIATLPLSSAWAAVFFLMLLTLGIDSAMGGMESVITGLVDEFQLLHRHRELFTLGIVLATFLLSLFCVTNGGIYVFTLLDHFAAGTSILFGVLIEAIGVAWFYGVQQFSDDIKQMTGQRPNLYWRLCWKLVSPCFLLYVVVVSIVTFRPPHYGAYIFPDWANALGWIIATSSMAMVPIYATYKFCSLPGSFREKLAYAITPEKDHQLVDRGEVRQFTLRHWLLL

## C[C@]12C[C@@H](O)[C@@H]3C[C@@]1(O[C@@H]1O[C@H](CO)[C@@H](O)[C@H](O)[C@H]1O)[C@@]3(COC(=O)c1ccccc1)C(=O)O2 [albiflorin, Albiflorin]
M5
  % Inhibition of binding at 10 μM albiflorin: 20.11%
M5; [2]
  IC50: > 10 µM
A1
  % Inhibition of binding at 10 μM albiflorin: 21.23%
A1; [2]
  IC50: > 10 µM
μ
  % Inhibition of binding at 10 μM albiflorin: 23.66%
μ; [2]
  IC50: > 10 µM
Rat DAT
  Ki: 3.656 ± 0.0254 µM
Duration of immobility
  antidepressant-like effect, tail-suspension test: decreases in the duration of immobility
M4
  % Inhibition of binding at 10 μM albiflorin: 15.33%
M4; [2]
  IC50: > 10 µM
[1]
  effect on DA levels in the hypothalamus: not elevated
β1
  % Inhibition of binding at 10 μM albiflorin: 63.22%
β1; [2]
  IC50: 3.35 ± 0.212 µM
SERT
  IC50: 3.04 ± 0.84 nM
D3
  IC50: 3.66 ± 0.212 µM
5-HT1D
  % Inhibition of binding at 10 μM albiflorin: 22.36%
5-HT1D; [2]
  IC50: > 10 µM
5-HT7
  % Inhibition of binding at 10 μM albiflorin: 14.55%
5-HT7; [2]
  IC50: > 10 µM
